In experiment [1] the target is T1, soluble guanylyl cyclase (sGC) (Homo sapiens, UniProt Q02153).
T1 sequence (Q02153 1-619): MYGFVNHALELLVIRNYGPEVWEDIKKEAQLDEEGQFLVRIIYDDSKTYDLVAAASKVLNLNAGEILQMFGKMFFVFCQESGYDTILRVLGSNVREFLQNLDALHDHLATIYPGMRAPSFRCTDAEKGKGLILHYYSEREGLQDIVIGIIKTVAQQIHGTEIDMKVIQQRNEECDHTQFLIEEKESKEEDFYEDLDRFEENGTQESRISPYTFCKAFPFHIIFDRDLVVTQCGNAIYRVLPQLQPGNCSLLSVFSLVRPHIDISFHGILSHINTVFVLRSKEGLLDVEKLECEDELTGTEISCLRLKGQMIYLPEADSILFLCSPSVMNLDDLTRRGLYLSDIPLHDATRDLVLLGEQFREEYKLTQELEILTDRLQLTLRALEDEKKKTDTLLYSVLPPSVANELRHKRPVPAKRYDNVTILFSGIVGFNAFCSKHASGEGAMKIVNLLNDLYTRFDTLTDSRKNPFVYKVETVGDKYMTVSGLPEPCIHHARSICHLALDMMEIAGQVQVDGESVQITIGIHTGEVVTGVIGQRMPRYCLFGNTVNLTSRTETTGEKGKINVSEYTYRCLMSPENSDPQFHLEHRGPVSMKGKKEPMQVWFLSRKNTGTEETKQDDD
T1 sequence (Q02108 1-690 partner): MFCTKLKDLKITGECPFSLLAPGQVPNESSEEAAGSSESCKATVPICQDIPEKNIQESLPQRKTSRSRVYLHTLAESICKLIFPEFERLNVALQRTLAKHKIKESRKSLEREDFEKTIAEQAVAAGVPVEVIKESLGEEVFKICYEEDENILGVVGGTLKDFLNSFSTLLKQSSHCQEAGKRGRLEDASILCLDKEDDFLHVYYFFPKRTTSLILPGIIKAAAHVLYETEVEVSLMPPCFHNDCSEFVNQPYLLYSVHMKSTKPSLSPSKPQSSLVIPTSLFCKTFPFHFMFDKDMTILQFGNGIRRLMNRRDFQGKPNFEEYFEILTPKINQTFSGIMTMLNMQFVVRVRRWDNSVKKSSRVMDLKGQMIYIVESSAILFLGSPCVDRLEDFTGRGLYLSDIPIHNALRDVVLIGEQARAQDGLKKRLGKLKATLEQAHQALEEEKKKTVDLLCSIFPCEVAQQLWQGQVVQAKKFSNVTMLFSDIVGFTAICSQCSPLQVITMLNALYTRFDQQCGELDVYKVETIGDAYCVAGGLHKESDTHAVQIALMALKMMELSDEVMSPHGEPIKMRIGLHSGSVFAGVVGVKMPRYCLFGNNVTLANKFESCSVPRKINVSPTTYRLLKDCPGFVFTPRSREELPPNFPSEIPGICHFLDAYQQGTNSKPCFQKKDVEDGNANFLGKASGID
Kind of experiment: anaerobic. The experiment is classed as binding.

A further experiment deals with Ns H-NOX (Nostoc sp. PCC 7120 = FACHB-418, UniProt A0ACD6B960). Kind of experiment: biochemical.

Usually Kd stands for the free concentration of one partner at which half of the binding sites on the other are occupied at equilibrium, for simple one-to-one binding. Higher therefore signals a looser complex.

Chain of Ns H-NOX (A0ACD6B960 1-189): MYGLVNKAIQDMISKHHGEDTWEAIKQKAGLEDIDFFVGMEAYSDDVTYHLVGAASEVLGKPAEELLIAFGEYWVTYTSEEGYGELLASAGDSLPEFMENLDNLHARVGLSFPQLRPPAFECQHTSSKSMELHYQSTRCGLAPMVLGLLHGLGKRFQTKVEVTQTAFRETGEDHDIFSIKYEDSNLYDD

On to `[N]=O` [NO], for which, in experiment [1], binding was put at a Kd of 54 nM.
At Ns H-NOX, `O=O` [O2] yielded a Kd of 13 mM.

Source of the values: publication PMC3254785 (2011).
